Experimental data as given in the supplement of paper PMC10307832.

Legend:
Experiment in all cases: relative viability (nuclei count vs DMSO), 5 days (fraction); higher = more cells survive
Tanzisertib + Vorinostat = compound: O[C@H]1CC[C@H](Nc2ncc3nc(Nc4c(F)cc(F)cc4F)n([C@H]4CCOC4)c3n2)CC1 [Tanzisertib] + O=C(CCCCCCC(=O)Nc1ccccc1)NO [Vorinostat] (partner 1 µM)
Method in brief: (§1)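 Dosing by pin tool came one day after lung cancer cell lines were seeded in 1536-well plates, using either one drug or a fixed anchor-drug dose plus five library-drug doses (not always all listed) in √10 steps. After 5 days, nuclei were counted on 4× images. Relative viability is treated-well nuclei count divided by vehicle-well nuclei count, and values are medians of duplicate plates.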

[1] = compound: C1CNCCC1C2=CC(=NN2)C3=CC=NC=C3 + Cc1cc(Nc2cc(N3CCN(C)CC3)nc(Sc3ccc(NC(=O)C4CC4)cc3)n2)n[nH]1 [Tozasertib] (partner 0.1 µM)
Method in brief: as §1

[2] = compound: C[C@@H](N)c1ccc(C(=O)Nc2ccnc3[nH]ccc23)cc1 + COc1cccc2cc(-c3nc([C@H]4CC[C@H](C(=O)O)CC4)n4ncnc(N)c34)[nH]c12 [OSI-027] (partner 0.5 µM)
Method in brief: as §1

Tanzisertib + Pictilisib = compound: O[C@H]1CC[C@H](Nc2ncc3nc(Nc4c(F)cc(F)cc4F)n([C@H]4CCOC4)c3n2)CC1 [Tanzisertib] + CS(=O)(=O)N1CCN(Cc2cc3nc(-c4cccc5[nH]ncc45)nc(N4CCOCC4)c3s2)CC1 [Pictilisib] (partner 1 µM)
Method in brief: as §1

Cell Line	relative viability (Tanzisertib + Vorinostat; first compound 0.08 µM)	relative viability (Tanzisertib + Vorinostat; first compound 0.253 µM)	relative viability (Tanzisertib + Vorinostat; first compound 0.8 µM)	relative viability (Tanzisertib + Vorinostat; first compound 2.53 µM)	relative viability (Tanzisertib + Vorinostat; first compound 8 µM)	relative viability ([1]; first compound 0.08 µM)	relative viability ([1]; first compound 0.8 µM)	relative viability ([1]; first compound 2.53 µM)	relative viability ([1]; first compound 8 µM)	relative viability ([2]; first compound 0.04 µM)	relative viability ([2]; first compound 0.1265 µM)	relative viability ([2]; first compound 0.4 µM)	relative viability ([2]; first compound 1.265 µM)	relative viability ([2]; first compound 4 µM)	relative viability (Tanzisertib + Pictilisib; first compound 0.08 µM)	relative viability (Tanzisertib + Pictilisib; first compound 0.253 µM)	relative viability (Tanzisertib + Pictilisib; first compound 0.8 µM)	relative viability (Tanzisertib + Pictilisib; first compound 2.53 µM)	relative viability (Tanzisertib + Pictilisib; first compound 8 µM)
NCI-H358	0.764	0.791	0.75	0.65	0.56	0.106	0.101	0.106	0.0938	0.816	1.07	0.855	0.794	0.701	0.393	0.389	0.331	0.293	0.332
NCI-H441	0.895	0.854	0.731	0.72	0.804	0.532	0.613	0.727	0.73	0.631	0.807	0.62		0.701	0.494	0.529	0.525	0.476	0.463
NCI-H460	0.864	0.89	0.744	0.729	0.699	0.474	0.381	0.617	0.449	0.748	0.602	0.746	0.633	0.897	0.495	0.368	0.362	0.317	0.0876
NCI-H520	0.866	0.749	0.789	0.724	0.73	0.395	0.378	0.457	0.457	0.287	0.333	0.329	0.334	0.335	0.372	0.322	0.29	0.287	0.297
NCI-H596	0.533	0.655	0.619	0.711	0.589	0.874	1.04	0.814	1.01	0.643	0.592	0.747		0.709	0.408	0.407	0.42	0.394	0.451
NCI-H647	0.486	0.569	0.549	0.661	1.1	0.263	0.413	0.297	0.263	0.597	0.611	0.586	0.574	0.501	0.456	0.537	0.474	0.436	0.141
NCI-H650	0.404	0.421	0.432	0.45	0.282	0.738	0.729	0.799	0.793		0.508	0.503	0.488	0.421	0.843	0.825	0.858	0.957	0.963
NCI-H661	0.799	0.724	0.798	0.859	0.797	0.38	0.367	0.356	0.345	0.754	0.682	0.636	0.593	0.552	0.464	0.389	0.365	0.447	0.35
NCI-H727	1.18	1.26	1.25	1.04	1.12	0.613	0.51	0.87	0.545	0.832	0.68	0.719	0.676	0.852	0.356	0.463	0.363	0.333	0.307
NCI-H838	0.745	0.73	0.733	0.676	0.651	0.314	0.292	0.28	0.284	0.395	0.45	0.413	0.339	0.253	0.564	0.424	0.493	0.536	0.493
NCI-H1355	0.722	0.608	0.642	0.67	0.628	0.556	0.595	0.57	0.622	0.459	0.415	0.432	0.343	0.379	0.455	0.417	0.46	0.461	0.306
NCI-H1395	0.642	1.13	0.768	0.72	0.481	0.731	0.643	0.813	0.766	0.637	0.739	0.685	0.389	0.588	0.592	0.735	0.568	0.589	0.533
NCI-H1437	0.876	0.896	0.88	0.895	0.97	0.412	0.415	0.417	0.421	0.947	0.838	0.853	1	0.919	0.445	0.492	0.452	0.486	0.565
NCI-H1650	0.551	0.601	0.501	0.625	0.491	0.393	0.446	0.433	0.392	0.825	0.773	0.761	0.707	0.664	0.656	0.538	0.666	0.586	0.438
NCI-H1651	0.575	0.603	0.513	0.517	0.549	0.598	0.685	0.767	0.735	0.901	0.817	0.888	1.05	0.802	0.562	0.579	0.581	0.6	0.583
NCI-H1666	1.03	0.988	1.11	1.01	1.05	0.59	0.7	0.693	0.755	0.917	0.979	0.935	1.14	1.06	0.494	0.588	0.414	0.546	0.439
NCI-H1734	0.966	0.781	0.756	0.906	0.81	0.27	0.279	0.269	0.271	0.627	0.611	0.549	0.315	0.563	0.534	0.405	0.45	0.454	0.382
